In US8383125B2, “Antimicrobial protein” (Agriculture Victoria Services Pty, Limited, priority 2006, dated 2013):
Values after ≈ are worked out from the molar mass of the structure shown. Read-outs that look alike come from different tables or passages of the source. Where a SMILES comes first, the peptide text is derived from it. Where no end group is shown, it is not given here. [ ]: non-standard residue; d: D form.

Tests used:
[1] = system: Streptococcus equi equi (ATCC 9527); format: cell-based; details: ATCC 9527
[2] = system: Staphylococcus aureus (ATCC 25923); format: cell-based
[3] = system: Salmonella choleraesuis (ATCC 14028); format: cell-based
Bacillus subtilis = format: cell-based
[4] = system: P. aeruginosa (ATCC 28753); format: cell-based, Pseudomonas aeruginosa
[5] = system: Candida albicans (ATCC 753); format: cell-based
[6] = system: Streptococcus pyogenes (ATCC 19615); format: cell-based
E. coli DH5α = details: for antimicrobial activity, cleared area in radial diffusion assay (FIG. 4): 5 μl of 250 μg/ml solutions
Protocol: Briefly, approximately 4×10^6 of mid-logarithmic-phase organisms were grown on plates in 11 ml of warm 0.8% agarose containing 0.03% (w/v) Tryticase soy broth (TSB) powder, with or without 100 mM NaCl, buffered with 10 mM sodium phosphate, pH 7.4. The test peptide was serially diluted in acidified water (0.01% acetic acid), and 5 μl of diluted peptide sample was loaded in a 2.5 diameter well in the agarose. A 10 ml overlay gel composed of 6% TSB, 0.8% agarose and 10 mM sodium phosphate buffer (pH 7.4) was poured into each well. Plates were then incubated overnight to allow the surviving organisms to form microcolonies. The clear zone were measured to the nearest 0.1 mm using a magnified transilluminator and expressed in units (1 mm=10 U) after subtracting the well diameter. The minimum inhibitory concentration (MIC) is defined by the χ intercept of a regression line through zone diameters obtained from a series of serially diluted peptide samples.

[7] = system: Streptococcus agalactiae (ATCC 12927); format: cell-based
[8] = system: Pseudomonas aeruginosa (ATCC 27853); format: cell-based
Protocol: (§1) The MIC values of SEQ ID NO: 2 and SEQ ID NO: 19 were also determined against a range of multidrug-resistant isolates, including clinical and laboratory strains. Peptides, maintained at −20° C. in solid form for storage purposes, were subsequently dissolved in 0.01% (v/v) acetic acid (Sigma-Aldrich) to a stock concentration of […]. The stock solutions were made fresh for each experiment. Eighteen (18) bacterial isolates obtained from the Facility for Anti-Infective Drug Development and Innovation, Victoria, Australia (FADDI) as listed in Table 2 were maintained as stock cultures in Tryptic Soya Broth plus 20% (v/v) glycerol at a temperature of −80° C., and subcultured onto Nutrient Agar for each experiment. MIC values were determined in cation-adjusted Mueller-Hinton broth (CAMHB) and Mueller-Hinton broth (MHB) using standard broth micro-dilution methods.

Escherichia coli DH5 α = format: cell-based
Protocol: as §1

[9] = system: Acinetobacter baumannii (ATCC 19606); format: cell-based
Protocol: as §1

[10] = system: Klebsiella pneumoniae (ATCC 13883); format: cell-based
Protocol: as §1

[11] = system: tammar wallaby erythrocytes; format: cell-based
Protocol: The toxicity of the antimicrobial peptides was determined using a haemolytic assay. In particular, the hemolytic activity of the peptides was determined using tammar wallaby erythrocytes. Fresh erythrocytes were harvested from heparinized blood taken from a tammar wallaby. Erythrocytes were harvested by centrifugation for 3 min at 3000 g. Erythrocytes were then washed three times with PBS (pH 7.4) until the supernatant was essentially colourless. 20 μl two fold serial dilutions of the peptide were mixed with the same volume of erythrocytes in solution 2%) in PBS of each well of a 96-plate. 80 μl PBS was added to each well after the plate was incubated at 37° C. for one hour. Plates were then centrifuged at 3000 g for 5 min. 90 μl of the resulting supernatant was transferred to a flat-bottom microtiter plate and haemoglobin release was monitored by measuring the absorbance at 414 nm with an ELISA plate reader. […] Each sample was performed in triplicate. Percentage hemolysis was calculated by the following formula: [(OD414 peptide−OD414 buffer)/OD414 complete hemolysis−OD414 buffer)]×100%.

[12] = system: Enterococcus faecium (ATCC 700221); format: cell-based; details: ATCC 700221, 17 h
Protocol: as §1

[13] = system: Staphylococcus aureus (ATCC 700698); format: cell-based; details: ATCC 700698, 17 h
Protocol: as §1

[14] = system: A. baumannii strain FADDI 005 (ATCC 19606 derivative); format: cell-based, Acinetobacter baumannii; details: 17 hr at 35° C.
Protocol: as §1
Pseudomonas aeruginosa (ATCC 27853) and S. aureus (ATCC 43300) were included as quality controls in experiments. P. aeruginosa strains FADDI 001 and FADDI 002 are mucoid; and P. aeruginosa strains FADDI 003 and FADDI 004 are non-mucoid. P. aeruginosa strain FADDI 003 also has a small colony morphology. The A. baumannii strain FADDI 005 is a colistin-resistant isolate obtained from Mueller-Hinton agar containing 10 mg/L colistin.

[15] = system: A. baumannii strain FADDI 006; format: cell-based, Acinetobacter baumannii; details: strain FADDI 006, 17 h
Protocol: as §1

[16] = system: A. baumannii strain FADDI 007; format: cell-based, Acinetobacter baumannii; details: strain FADDI 007, 17 h
Protocol: as §1

[17] = system: P. aeruginosa strain FADDI 002; format: cell-based, Pseudomonas aeruginosa; details: strain FADDI 002, 17 h
Protocol: as §1

[18] = system: K. pneumoniae strain FADDI 010; format: cell-based, Klebsiella pneumoniae; details: strain FADDI 010, 17 h
Protocol: as §1

[19] = system: K. pneumoniae strain FADDI 009; format: cell-based, Klebsiella pneumoniae; details: strain FADDI 009, 17 h
Protocol: as §1

S. aureus (ATCC 43300) = format: cell-based, Staphylococcus aureus; details: ATCC 43300, 17 h
Protocol: as §1

S. aureus 700699 = format: cell-based, Staphylococcus aureus; details: 700699, 17 h
Protocol: as §1

[20] = system: S. aureus strain FADDI 011; format: cell-based, Staphylococcus aureus; details: strain FADDI 011, 17 h
Protocol: as §1

[21] = MHB (less than 5 mg/L Mg2+ and 24 mg/L Ca2+), 17 hr at 35° C.

## RKKGSKRHKPGSYSVIALGKPGVKKSPYMEAL-NH2 [SEQ ID NO: 31]
[1]
  MIC: 8.66 ± 0.45 µg/mL
[2]; ATCC 25923
  MIC: 8.5 ± 0.23 µg/mL
[3]
  MIC: >250 µg/mL
Bacillus subtilis
  MIC: 14.03 ± 0.25 µg/mL
[4]
  MIC: 57.8 µg/mL
[5]; ATCC 753
  MIC: >250 µg/mL
[6]; ATCC 19615
  MIC: 3.43 ± 0.34 µg/mL
[6]; Table 1
  antimicrobial activity in words: moderate protection
E. coli DH5α; DH5 α
  MIC: 1.16 ± 0.67 µg/mL
E. coli DH5α; Table 1
  antimicrobial activity in words: strong protection
[7]; ATCC 12927
  MIC: 5.44 ± 0.11 µg/mL

## CC[C@H](C)[C@H](NC(=O)[C@H](CCCCN)NC(=O)[C@H](CCC(=O)O)NC(=O)[C@H](CCCCN)NC(=O)[C@H](CO)NC(=O)[C@H](CCCCN)NC(=O)[C@H](CCCNC(=N)N)NC(=O)[C@H](Cc1ccccc1)NC(=O)[C@H](Cc1ccccc1)NC(=O)[C@H](CC(=O)O)NC(=O)CNC(=O)[C@H](CC(C)C)NC(=O)[C@@H](N)CC(C)C)C(=O)NCC(=O)N[C@@H](CCCCN)C(=O)N[C@@H](CCC(=O)O)C(=O)N[C@@H](Cc1ccccc1)C(=O)N[C@@H](CCCCN)C(=O)N[C@@H](CCCNC(=N)N)C(=O)N[C@H](C(=O)N[C@H](C(=O)N[C@@H](CCC(N)=O)C(=O)N[C@@H](CCCNC(=N)N)C(=O)N[C@H](C(=O)N[C@@H](CCCCN)C(=O)N[C@@H](CC(=O)O)C(=O)N[C@@H](Cc1ccccc1)C(=O)N[C@@H](CC(C)C)C(=O)N[C@@H](CCCNC(=N)N)C(=O)N[C@@H](CC(N)=O)C(=O)N[C@@H](CC(C)C)C(=O)N[C@H](C(=O)N1CCC[C@H]1C(=O)N[C@@H](CCCNC(=N)N)C(=O)N[C@H](C(=O)N[C@@H](CCC(=O)O)C(=O)N[C@@H](CO)C(=O)O)[C@@H](C)O)C(C)C)[C@@H](C)CC)C(C)C)[C@@H](C)CC [LL-37, reference compound]
[8]; [21]
  MIC: >32 µg/mL
Escherichia coli DH5 α; microbroth dilution in MHB
  MIC: 32 µg/mL (≈ 7.12 µM)
[9]; [21]
  MIC: 32 µg/mL (≈ 7.12 µM)
[10]; [21]
  MIC: 32 µg/mL (≈ 7.12 µM)

## D-Lys Arg Gly Phe Gly Lys Lys Leu Arg Lys Arg Leu Lys Lys Phe Arg Asn Ser Ile Lys Lys Arg Leu Lys Asn Phe Asn Val Val Ile Pro Ile Pro Leu D-Pro ([dK]RGFGKKLRKRLKKFRNSIKKRLKNFNVVIPIPL[dP]) [SEQ ID NO: 11]
E. coli DH5α; E. coli
  antimicrobial activity, cleared area in radial diffusion assay (FIG. 4): exhibits antimicrobial activity

## KRGFGKKLRKRLKKFRNSIKKRLKNFNVVIPIPLP-NH2 [SEQ ID NO: 2]
[11]
  haemolysis at the MIC determined in Example 1: less than 5%
  haemolysis at the majority of concentrations tested (FIGS. 2a and 2b): did not cause substantial levels of haemolysis
[2]; Table 1
  antimicrobial activity in words: weaker antimicrobial activity
Escherichia coli DH5 α; DH5 α
  MIC: 2 µg/mL
[12]
  MIC: 16 µg/mL
[13]
  MIC: >64 µg/mL
[14]; CAMHB (10.0 mg/L Mg2+ and 24 mg/L Ca2+)
  MIC: 8 µg/mL
[14]; MHB (less than 5 mg/L Mg2+ and 24 mg/L Ca2+)
  MIC: 4 µg/mL
[15]
  MIC: >64 µg/mL
[16]
  MIC: 8 µg/mL
[5]; Table 1
  antimicrobial activity in words: Weaker antimicrobial activity
E. coli DH5α; 5 μl of 250 μg/ml solutions of each peptide, E. coli
  radial clear zone compared to LL-37 (FIG. 3): larger radial clear zone
[17]
  MIC: 4 µg/mL
[18]
  MIC: 32 µg/mL
[19]
  MIC: 4 µg/mL
[7]; Table 1
  antimicrobial activity in words: moderate antimicrobial activity
S. aureus (ATCC 43300)
  MIC: >64 µg/mL
S. aureus 700699
  MIC: >64 µg/mL
[20]
  MIC: >64 µg/mL

## PLPIPIVVNFNKLRKKISNRFKKLRKRLKKGFGRK [SEQ ID NO: 13]
E. coli DH5α; E. coli
  antimicrobial activity, cleared area in radial diffusion assay (FIG. 4): exhibits antimicrobial activity

## CC[C@@H](C)[C@@H](NC(=O)[C@@H](CO)NC(=O)[C@@H](CC(N)=O)NC(=O)[C@@H](CCCNC(=N)N)NC(=O)[C@@H](Cc1ccccc1)NC(=O)[C@@H](CCCCN)NC(=O)[C@@H](CCCCN)NC(=O)[C@@H](CC(C)C)NC(=O)[C@@H](CCCNC(=N)N)NC(=O)[C@@H](CCCCN)NC(=O)[C@@H](CCCNC(=N)N)NC(=O)[C@@H](CC(C)C)NC(=O)[C@@H](CCCCN)NC(=O)[C@@H](CCCCN)NC(=O)CNC(=O)[C@@H](Cc1ccccc1)NC(=O)CNC(=O)[C@@H](CCCNC(=N)N)NC(=O)[C@H](N)CCCCN)C(=O)N[C@H](CCCCN)C(=O)N[C@H](CCCCN)C(=O)N[C@H](CCCNC(=N)N)C(=O)N[C@H](CC(C)C)C(=O)N[C@H](CCCCN)C(=O)N[C@H](CC(N)=O)C(=O)N[C@H](Cc1ccccc1)C(=O)N[C@H](CC(N)=O)C(=O)N[C@@H](C(=O)N[C@@H](C(=O)N[C@@H](C(=O)N1CCC[C@@H]1C(=O)N[C@@H](C(=O)N1CCC[C@@H]1C(=O)N[C@H](CC(C)C)C(=O)N1CCC[C@@H]1C(N)=O)[C@H](C)CC)[C@H](C)CC)C(C)C)C(C)C [SEQ ID NO: 9, D-Lys D-Arg D-Gly D-Phe D-Gly D-Lys D-Lys D-Leu D-Arg D-Lys D-Arg D-Leu D-Lys D-Lys D-Phe D-Arg D-Asn D-Ser D-Ile D-Lys D-Lys D-Arg D-Leu D-Lys D-Asn D-Phe D-Asn D-Val D-Val D-Ile D-Pro D-Ile D-Pro D-Leu D-Pro] (H-[dK][dR]G[dF]G[dK][dK][dL][dR][dK][dR][dL][dK][dK][dF][dR][dN][dS][dI][dK][dK][dR][dL][dK][dN][dF][dN][dV][dV][dI][dP][dI][dP][dL][dP]-NH2; N-terminus and C-terminus assumed)
[8]; ATCC 27853, 17 h
  MIC: 4 µg/mL (≈ 0.948 µM)
Escherichia coli DH5 α; DH5 α
  MIC: 4 µg/mL (≈ 0.948 µM)
[9]; ATCC 19606, 17 h
  MIC: 8 µg/mL (≈ 1.9 µM)
[10]; ATCC 13883, 17 h
  MIC: 4 µg/mL (≈ 0.948 µM)
S. aureus (ATCC 43300)
  MIC: >32 µg/mL

## D-Pro Leu Pro Ile Pro Ile Val Val Asn Phe Asn Lys Leu Arg Lys Lys Ile Ser Asn Arg Phe Lys Lys Leu Arg Lys Arg Leu Lys Lys Gly Phe Gly Arg D-Lys ([dP]LPIPIVVNFNKLRKKISNRFKKLRKRLKKGFGR[dK]) [SEQ ID NO: 17]
E. coli DH5α; E. coli
  antimicrobial activity, cleared area in radial diffusion assay (FIG. 4): exhibits antimicrobial activity
